Entries after “also recorded” stand apart in the source; their conditions may differ.

The values below come from patent publication US20260355199A1, “COMPOSITIONS AND METHODS FOR TREATING OR PREVENTING NONALCOHOLIC STEATOHEPATITIS (NASH), ANOREXIA, DEPRESSION, ENDOMETRIOSIS, AND OTHER DISEASES OR DISORDERS” (priority 2022, published 2026).

For one assay, the system named is AGRP, NPY, and VGAT. Nature of the assay: AGRP, NPY and VGAT expression in the ARC of mice. Type of assay: in vivo, mouse. The note with it: Bobcat339 vs. vehicle mice. How it is done:
The GFP construct used for tagging AgRP neurons labels almost exclusively the perikaryon. The presence of AGRP, NPY, and VGAT outside the perikarya reflected the fact that these fast-firing neurons transport their neuromodulatory products rabidly to the neuronal processes.
Bobcat339 powder (Sigma-Aldrich, SML2611) was freshly dissolved in DMSO (vehicle) at a concentration of 50 mg/mL and filtered through a 0.22 micron. It was further diluted with 1×PBS to a final concentration of 0.5 mg/mL before injections. Mice were injected intraperitoneally with Bobcat339 at 1 mg/kg, 2.5 mg/kg, or 4 mg/kg.
Total RNAs were extracted from neuronal cells or homogenized hypothalamic arcuate nucleus tissue samples using PureLink RNA Mini Kit (Ambion, 12183025). cDNA was synthesized using PrimeScript RT Reagent Kit in a 20 μl reaction containing 0.5-1 μg of total RNA. Real-time quantitative PCR was performed in a 15 μl reaction containing 0.5-1 μl of cDNA using SsoAdvanced Universal SYBR Green Supermix in a Bio-Rad iCycler. Specificity was verified by melting curve analysis. The Ct values of each sample were used in the post-PCR data analysis. […]
The immunofluorescence for brain slices was conducted using previous methods (18). […] The sections were coverslipped and scoped using a Keyence BZ-X700 fluorescence microscope. The fluorescence signals from GFP in AgRP neurons were detected without immunostaining.

The next assay deals with AGRP in the ARC. Nature of the assay: AGRP expression and feeding of chow-fed mice given Bobcat339 in drinking water. Type of assay: in vivo, mouse. An excerpt: It has previously been shown that TET3 expression is aberrantly elevated in the livers of humans and mice with type 2 diabetes and that liver-specific, siRNA-mediated TET3 knockdown improves glucose homeostasis both in dietary and genetic mouse models of diabetes (Li D. et al., 2020, Nature Communications, 11:342). Bobcat339 (4-Amino-1-[1,1′-biphenyl]-3-yl-5-chloro-2(1H)-pyrimidinone) is a synthetic cytosine derivative capable of binding competitively with 5mC to the active sites of [COMPOUND LEFT OUT] and inhibits their enzymatic activity in cultured neuronal cells (Chua G. N. L. et al., 2019, ACS Medicinal Chemistry Letters, 10:180-185). Although not bound by any particular theory, it was hypothesized that Bobcat339 has an anti-diabetic effect owing to its ability to inhibit [COMPOUND LEFT OUT]. Thus, the present studies employed high fat diet (HFD)-induced diabetic mice that were treated with Bobcat339 in drinking water for two weeks. […] Thus, nondiabetic mice fed on regular chow were treated with Bobcat339 in drinking water. Four days later, ARCs were isolated from ad libitum-fed mice and analyzed. […]
Immunofluorescence Postfixed sections were cut into 40 μm-thick sections. […] The sections were coverslipped and visualized using a Keyence BZ-X700 fluorescence microscope. The fluorescence signals from GFP and mCherry in AgRP neurons were detected without immunostaining. […]

Take `Nc1nc(=O)n(-c2cccc(-c3ccccc3)c2)cc1Cl` [Bobcat339, 4-Amino-1-[1,1′-biphenyl]-3-yl-5-chloro-2(1H)-pyrimidinone]: in the assay with AGRP, NPY, and VGAT, the “AGRP, NPY, and VGAT protein in the ARC” value is “increased productions of AGRP, NPY, and VGAT; also recorded: a marked increase in their expressions”; the “Agrp, Npy and Slc32a1 mRNA in the ARC” value is “Increases in the mRNA levels of Agrp, Npy and Slc32a1; also recorded: increased expressions of Agrp, Npy, and Slc32a1”. Also, in the assay with AGRP in the ARC (Bobcat339 100 mg/kg per day in drinking water, 4 days, 100 mg/kg/day), the “AGRP expression in the ARC” value is given as “increased AGRP expression in the ARC; also recorded: increased AGRP peptide; also recorded: increased AGRP production”. In addition, the feeding result with AGRP in the ARC (mice exposed to Bobcat339) is reported as “induced hyperphagia”.
